From PMC11036650, “Different Modes of Mechanism of Gamma-Mangostin and Alpha-Mangostin to Inhibit Cell Migration of Triple-Negative Breast Cancer Cells Concerning CXCR4 Downregulation and ROS Generation” (Iranian Journal of Pharmaceutical Research : IJPR, 2023)
Like-named read-outs stand apart in the source and are kept apart here.

How the values were obtained:
Type in all cases: cell-based, human
MDA-MB-231 cells [1] = assay: Intracellular ROS level measurement (DCFDA, flow cytometry); details: for ROS accumulation: 10 µM
Description: The MDA-MB-231 cells were collected in a buffer with 10% FBS in phosphate-buffered saline (PBS) and transferred in a sterile light-blocking microtube before being stained with 20 µM of 2’,7’-dichlorofluorescein diacetate (DCFDA) (Sigma #D6883, USA) and incubated for 30 minutes. Later, γ-mangostin and α-mangostin were added to the cell suspensions and incubated in a 37 °C incubator (with 5% CO2) before analyzing by a flow cytometer (Calibur) at indicated times (4, 8, 18, and 24 hours). 2’,7’-dichlorofluorescein diacetate reacted with the hydroxyl radicals (·OH) and transformed into fluorescent 2,7-dichlorofluorescein (DCF). The fluorescence intensity of DCF based on 5,000 cells per gate was calculated using the flow cytometer ([29], [30]). In a separate experiment, the cells already stained with DCFDA were treated with 5 mM N-acetyl-L-cysteine (NAC) (Wako #017-05131, Japan) and incubated for an hour before the treatment with γ-mangostin and α-mangostin for the next 24 hours, and the ROS level was subsequently measured. The assay was carried out in triplicate.

MDA-MB-231 cells [2] = assay: Migration assay (wound healing); details: 10 μM, 24 and 42 hours, mitomycin C pretreatment, P < 0.05
Description: A culture-insert 2 well (cat #ib81176) was placed in the well. Then, 5 × 10^4 cells were seeded on each side of the insert. After 24 hours, the medium was discarded and replaced with the fresh medium containing 0.5% FBS, and the cells were cultured for another 18 hours. The next day, the medium was replaced with 10 µg/mL mitomycin C (Wako #139-18711, Japan) and cultured for 2 hours before treatment with 10 μM γ-mangostin and 10 μM α-mangostin. Right after the treatment, the cells were observed under the microscope at 0 hour. At the indicated times (24 and 42 hours), the cell-free area from three parts (i.e., upper, center, and lower scratch) was measured by analyzing the gap closure rate using ImageJ software ([27]).

MDA-MB-231 cells [3] = assay: Cell viability assay (CCK-8); details: MDA-MB-231 cells, 24 hours, CCK-8 assay, triplicate ± SD
Description: (§1) The MDA-MB-231 breast cancer cells were cultured in an L-15 medium, enriched with 15% fetal bovine serum (FBS) (Gibco, USA) and 1% penicillin-streptomycin (Gibco, USA), and incubated in CO2-free 37°C incubator.
(§2) The compounds γ-mangostin (#M6824) and α-mangostin (#M3824) were purchased from Sigma-Aldrich (USA). A suspension of cells (20,000 cells/well in 100 μL) was cultured in a 96-well plate. After an initial 24-hour incubation, γ-mangostin or α-mangostin of varying concentrations (1 - 100 μM) was added to the plate, followed by another 24-hour incubation. A solution of Cell Counting Kit-8 (CCK-8) (Dojindo #347-07621, Japan) was added to each well, and the plate was incubated for 2 hours. The absorbance was subsequently read at 450 nm using a microplate reader ([26]). The assay was carried out in triplicate.

[4] = Cell viability assay (CCK-8); details: human
Description: as §1, §2

LPHN2 = assay: qRT-PCR gene expression, LPHN2; details: MDA-MB-231 cells, RT-qPCR
Description: (§3) Total ribonucleic acid (RNA) upon treatment with γ-mangostin and α-mangostin was collected from cells using Sepasol (Nacalai Tesque, Japan). The reverse transcription of complementary deoxyribonucleic acid (cDNA) was performed using ReverTra Ace qPCR RT Kit (Toyobo, Japan), which included DNAse I to remove genomic DNA. Quantitative real-time reverse-transcription polymerase chain reaction (qRT-PCR) was performed using the Thunderbird SYBR qPCR Mix (Toyobo, Japan) on a Real-Time PCR System Light Cycler 96 (Roche, USA). Rac, Farp, CXCR4 ([28]), and latrophilin-2 (LPHN2) primers were used, and GAPDH was detected as the internal control.

Farp = assay: qRT-PCR gene expression, Farp; details: MDA-MB-231 cells, RT-qPCR
Description: as §3

CXCR4 = assay: qRT-PCR gene expression, CXCR4; details: MDA-MB-231 cells, RT-qPCR
Description: as §3

[5] = longer incubation up to 24 hours, P < 0.0001

CC(=O)N[C@@H](CS)C(=O)O [NAC, N-acetyl-L-cysteine, reference compound]
amount of ROS induced by γ-mangostin and α-mangostin (MDA-MB-231 cells [1]; 5 mM NAC for 1 hour before 10 µM mangostin for 24 hours, P < 0.0001): reduced

CC(C)=CCc1c(O)cc2oc3cc(O)c(O)c(CC=C(C)C)c3c(=O)c2c1O [γ-mangostin]
MDA-MB-231 cell migration (gap closure) (MDA-MB-231 cells [2]): effectively inhibited MDA-MB-231 cell migration | IC50 (MDA-MB-231 cells [3]; Homo sapiens, MDA-MB-231, 24 h): 25 µM | IC50 (MDA-MB-231 cells [3]): 18 ± 5 µM | viability at 24 h, 10 µM [4]: 80% | expression of LPHN2 (mRNA, normalized with GAPDH) (LPHN2): downregulated | expression of Farp (mRNA, normalized with GAPDH) (Farp): downregulated | ROS accumulation (MDA-MB-231 cells [1]; after 4 hours): decreased | ROS accumulation (MDA-MB-231 cells [1]; [5]): started to rise | expression of CXCR4 (mRNA, normalized with GAPDH) (CXCR4): downregulated

COc1c(O)cc2oc3cc(O)c(CC=C(C)C)c(O)c3c(=O)c2c1CC=C(C)C [α-mangostin]
MDA-MB-231 cell migration (gap closure) (MDA-MB-231 cells [2]): a similar outcome was observed | IC50 (MDA-MB-231 cells [3]; Homo sapiens): 20 µM | viability at 24 h, 10 µM ([4]; MDA-MB-231 breast cancer cells, MDA-MB-231 cells, 10 µM concentration, read-out: cell viability): 80% | viability at 24 h ([4]; MDA-MB-231 breast cancer cells, MDA-MB-231 cells, concentration below 10 µM, 24 hours): 80 to 90% | expression of LPHN2 (mRNA, normalized with GAPDH) (LPHN2): did not alter | expression of Farp (mRNA, normalized with GAPDH) (Farp): did not alter | ROS accumulation (MDA-MB-231 cells [1]; after 4 hours): decreased | ROS accumulation (MDA-MB-231 cells [1]; [5]): started to rise | expression of CXCR4 (mRNA, normalized with GAPDH) (CXCR4): did not alter
